From paper PMC10791743, “Selective CK1α degraders exert antiproliferative activity against a broad range of human cancer cell lines” (Nature Communications, 2024)
“And” between values parts separate entries of the source, which are not always exact repeats. Equal values may be shown once.

How the values were obtained:
[1] = target: T1, CK1α-CRBN ternary complex (Homo sapiens, UniProt P48729+Q96SW2); test: Live cell CK1α-CRBN ternary complex NanoBRET assay; assay type: cell-based
T1 construct: engineered by CRISPR/Cas9 to express endogenous CK1α (HEK293 cells) or IKZF1 (Jurkat cells) with a HiBiT tag; CS3023104 (cells)
T1 sequence (Q96SW2 whole entry): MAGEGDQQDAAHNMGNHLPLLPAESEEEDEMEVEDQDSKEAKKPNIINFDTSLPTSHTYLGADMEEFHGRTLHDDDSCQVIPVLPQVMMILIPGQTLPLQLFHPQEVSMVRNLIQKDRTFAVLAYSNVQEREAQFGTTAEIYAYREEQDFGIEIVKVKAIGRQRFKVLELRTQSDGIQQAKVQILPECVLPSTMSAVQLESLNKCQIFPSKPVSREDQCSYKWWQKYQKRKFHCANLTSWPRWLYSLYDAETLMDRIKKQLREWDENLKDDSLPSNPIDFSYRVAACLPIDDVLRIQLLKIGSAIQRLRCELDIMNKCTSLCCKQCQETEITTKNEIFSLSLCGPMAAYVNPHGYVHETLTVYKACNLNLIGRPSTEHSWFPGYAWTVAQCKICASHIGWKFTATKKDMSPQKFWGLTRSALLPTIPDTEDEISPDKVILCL
T1 sequence (P48729 whole entry): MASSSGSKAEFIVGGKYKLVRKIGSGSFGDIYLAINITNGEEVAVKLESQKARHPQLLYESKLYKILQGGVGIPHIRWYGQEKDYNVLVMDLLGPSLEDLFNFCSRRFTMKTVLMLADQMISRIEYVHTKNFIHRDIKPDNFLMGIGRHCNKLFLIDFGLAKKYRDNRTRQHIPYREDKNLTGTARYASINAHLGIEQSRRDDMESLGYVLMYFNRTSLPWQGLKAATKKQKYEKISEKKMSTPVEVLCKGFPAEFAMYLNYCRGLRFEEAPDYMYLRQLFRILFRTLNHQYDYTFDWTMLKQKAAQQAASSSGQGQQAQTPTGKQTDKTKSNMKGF
T1 sequence (Q16531 whole entry partner): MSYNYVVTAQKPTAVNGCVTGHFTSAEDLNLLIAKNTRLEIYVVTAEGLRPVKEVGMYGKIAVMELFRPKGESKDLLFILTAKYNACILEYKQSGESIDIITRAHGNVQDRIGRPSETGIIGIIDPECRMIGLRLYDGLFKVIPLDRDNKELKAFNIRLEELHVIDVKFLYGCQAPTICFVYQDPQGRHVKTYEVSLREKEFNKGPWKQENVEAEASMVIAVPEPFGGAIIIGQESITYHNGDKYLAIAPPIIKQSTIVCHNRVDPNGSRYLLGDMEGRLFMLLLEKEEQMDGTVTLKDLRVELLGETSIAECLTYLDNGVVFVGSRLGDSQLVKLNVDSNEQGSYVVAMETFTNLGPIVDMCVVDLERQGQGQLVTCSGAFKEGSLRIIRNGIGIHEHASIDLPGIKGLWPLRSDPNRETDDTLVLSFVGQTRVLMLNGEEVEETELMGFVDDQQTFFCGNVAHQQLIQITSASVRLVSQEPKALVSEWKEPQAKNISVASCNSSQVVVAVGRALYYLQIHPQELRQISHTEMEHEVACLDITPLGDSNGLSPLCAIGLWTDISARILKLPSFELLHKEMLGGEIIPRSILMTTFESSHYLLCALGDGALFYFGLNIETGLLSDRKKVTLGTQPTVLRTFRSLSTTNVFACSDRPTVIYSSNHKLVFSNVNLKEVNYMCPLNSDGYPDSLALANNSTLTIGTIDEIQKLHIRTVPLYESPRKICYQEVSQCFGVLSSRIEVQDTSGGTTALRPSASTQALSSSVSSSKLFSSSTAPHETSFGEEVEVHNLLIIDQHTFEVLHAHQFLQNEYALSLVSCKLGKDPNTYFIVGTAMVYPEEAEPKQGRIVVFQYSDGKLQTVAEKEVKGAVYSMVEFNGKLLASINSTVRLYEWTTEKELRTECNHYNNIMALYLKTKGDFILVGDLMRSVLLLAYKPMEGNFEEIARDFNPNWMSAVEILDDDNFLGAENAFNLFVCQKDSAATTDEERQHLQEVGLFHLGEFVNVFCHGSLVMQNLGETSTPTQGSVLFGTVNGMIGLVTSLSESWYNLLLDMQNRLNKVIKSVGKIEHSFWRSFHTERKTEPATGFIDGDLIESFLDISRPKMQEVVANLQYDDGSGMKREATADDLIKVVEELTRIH
Protocol: CSNK1A1CK1α-HiBiT HEK293 LgBiT stable cells weretransfected with a HaloTag-CRBN vector (Promega, Cat. #N269A) using Fugene HD (Promega, Cat. #E2311). […] Plates were incubated overnight at 37 °C with 5% CO2. On day 3, a dose–response curve was generated by performing 3-fold dilutions of each compound including a DMSO-only control in OptiMEM I Reduced Serum Medium, no phenol red supplemented with 4% FBS. Cells were treated with MG132 (Selleckchem, Cat. #S2619) for 30 min before being treated with the dilution series of compounds. Plates were incubated for 2 h at 37 °C with 5% CO2. After 2 h, plates were read using NanoBRET Nano-Glo substrate (Promega #N1573) on a GloMax Discover following the manufacturer’s instructions. No ligand controls were subtracted from each sample and normalized to the no compound DMSO control to obtain Fractional BRET values. EC50 values were calculated for each compound curve.

[2] = Plasma stability assay, human; assay type: in vitro ADME; settings: for Calculated Concentration: 0h standards set to Actual Concentration 100, IS warfarin, replicates
Protocol: page 32: Aldrich, Saint Louis, MO) were diluted into 0.1 M potassium phosphate buffer (PBS, pH 7.4, KH2PO4, Cat. No: P284-500; K2HPO4, Cat. No: BP363-500, Fisher Scientific, Fair Lawn, NJ) and mixed well. 40 μL of this solution was transferred into the above compounds plates. For the time 0 plate, 3 fold (v:v) cold acetonitrile with warfarin (400 ng/mL) as the internal standard was added to […] and B in PBS, pH 7.4) and no incubation. For the other five time points’ plates, 10 μL NADPH regenerating agent mixer was added to each well to initiate the reaction, the plate was sealed and incubated at 37° C on an orbital shaker (100 rpm) for the required time, followed by quenching of the reaction by adding 3-fold volume of cold acetonitrile with internal standard to each well. The final concentration of each component applied in this reaction was liver microsome protein at 0.5 […] After quenching, all plates were securely sealed and thoroughly mixed at 600 rpm for 10 minutes. Subsequently, centrifugation was performed at 4000 rpm for 20 minutes. The resulting supernatants […] analysis using UPLC–MS/MS. The assessment of metabolic stability involved determining the half- life through a least-squares fit of multiple time points, employing first-order kinetics. Plasma stability assay5: The degradation of human or mouse plasma was assessed by monitoring the gradual reduction of the parent compound over specified time intervals (0, 3, 24, and 48 hours). Human and mouse plasma samples were sourced from GeneTex (Irvine, CA). Test compound stock solutions, prepared at 10 mM in DMSO, were dispensed into triplicate wells of a 96-well microplate using the Labcyte Echo 650 dispenser. For plates, excluding the time 0-hour plate, plasma was […] The plate was sealed, incubated at 37°C on an orbital shaker (100 rpm) for the required duration, and then quenched with cold acetonitrile, incorporating warfarin as the internal standard. In the case of the time 0-hour plate, cold acetonitrile with the internal standard was added to each well before introducing plasma, eliminating page 33: the need for further incubation. Following quenching, all plates were thoroughly mixed at 600 rpm for 10 minutes and centrifuged at 4000 rpm for 20 minutes. Supernatants were transferred to […] MS/MS analysis. Plasma stability was evaluated by determining the half-life through a least-squares fit of multiple time points based on first-order kinetics. Plasma protein binding assay: Test compound stock solutions were prepared at a concentration of 10 mM in DMSO. A Single-Use RED (Rapid Equilibrium Dialysis) device was acquired from Thermo Scientific (Cat. No: 99006, Rockford, IL). The sample preparation for plasma protein binding followed a modified version of Waters' method6. After thawing, plasma was centrifuged at 1000 rpm for 10 minutes to eliminate any particulates. Each compound was then prepared at a concentration of 10 µM in either human or mouse plasma. In the plasma protein binding assessment, 300 µL of spiked plasma solutions were introduced into the sample chamber (indicated by the red ring), while 550 µL of DPBS was added to the adjacent chamber. The plate was sealed and incubated at 37°C on an orbital shaker (100 rpm) for 4 hours. Post -incubation, 50 µL aliquots were withdrawn from each side of the insert and dispensed into a 96 -well storage plate. To create analytically identical sample matrices (matrix matching), an equivalent volume of blank plasma or DPBS was added to the necessary wells, followed by quenching w ith 3-fold (v:v) cold acetonitrile containing warfarin as the internal standard. Subsequently, the sealed plates were well -mixed at 600 rpm for 10 minutes and then centrifuged at 4000 rpm for 20 minutes. Supernatants were transferred to analytical […] Test compound concentrations were quantified in both the buffer and plasma chambers by determining peak areas relative to the internal standard. […]

[3] = human plasma, regression of log concentration over time points 0, 3, 24, 48 h

| Compound | CK1a: CRBN Ternary Complex NanoBRET Ratio ([1]; 0.111 uM) | CK1a: CRBN Ternary Complex NanoBRET Ratio, Normalized ([1]; 0.111 uM) | CK1a: CRBN Ternary Complex NanoBRET Ratio ([1]; 0.333 uM) | CK1a: CRBN Ternary Complex NanoBRET Ratio, Normalized ([1]; 0.333 uM) | CK1a: CRBN Ternary Complex NanoBRET Ratio ([1]; 1 uM) | CK1a: CRBN Ternary Complex NanoBRET Ratio, Normalized ([1]; 1 uM) | CK1a: CRBN Ternary Complex NanoBRET Ratio ([1]; 3 uM) | CK1a: CRBN Ternary Complex NanoBRET Ratio, Normalized ([1]; 3 uM) | CK1a: CRBN Ternary Complex NanoBRET Ratio ([1]; 10 uM, replicates) | CK1a: CRBN Ternary Complex NanoBRET Ratio, Normalized ([1]; 10 uM, replicates) | Ternary complex formation (NanoBRET signal) ([1]; 2 h treatment) | Plasma stability ([2]; human) | Calculated Concentration ([2]; human plasma, time point 3h) | Calculated Concentration ([2]; human plasma, time point 24h) | Calculated Concentration ([2]; human plasma, time point 48h) | Ke [2, 3] | t(1/2) [2, 3] |
| --- | --- | --- | --- | --- | --- | --- | --- | --- | --- | --- | --- | --- | --- | --- | --- | --- | --- |
| O=C1CCC(N2Cc3cc(Nc4noc5ccccc45)ccc3C2=O)C(=O)N1 (stereo not drawn) [SJ3149] | 3.47 mBU and 2.55 mBU and 2.79 mBU | 23.75 and 17.45 and 19.07 | 4.12 mBU and 3.68 mBU and 3.78 mBU | 28.17 and 25.18 and 25.82 | 4.59 mBU and 4.78 mBU and 4.4 mBU | 31.39 and 32.66 and 30.10 | 4.96 mBU and 4.79 mBU and 5.46 mBU | 33.90 and 32.75 and 37.33 | 5.57 mBU and 5.32 mBU and 5.78 mBU | 38.09 and 36.40 and 39.49 | most robust complex formation | 8.5 h | – | – | – | – | – |
| O=C1CCC(N2Cc3c(CNC(=O)c4ccc(F)cc4)cccc3C2=O)C(=O)N1 (stereo not drawn) [SJ7095] | 3.3 mBU and 3.11 mBU and 3.22 mBU and 2.76 mBU | 3.03 and 2.85 and 2.95 and 2.53 | 4.47 mBU and 5.14 mBU and 4.06 mBU and 4.1 mBU | 4.10 and 4.71 and 3.72 and 3.76 | 5.33 mBU and 5.06 mBU and 5.38 mBU and 4.31 mBU | 4.89 and 4.64 and 4.93 and 3.95 | 5.47 mBU and 7.05 mBU and 5.71 mBU and 6.74 mBU | 5.01 and 6.46 and 5.23 and 6.18 | 7.23 mBU and 6.62 mBU and 6.74 mBU and 6.49 mBU | 6.63 and 6.07 and 6.18 and 5.95 | – | – | – | – | – | – | – |
| O=C1CCC(N2Cc3cc(Nc4noc5ccccc45)ccc3C2=O)C(=O)N1 (stereo not drawn) [SJ001043149-1] | – | – | – | – | – | – | – | – | – | – | – | – | 67.501 and 81.153 and 72.775 | 13.370 and 15.407 and 13.318 | 1.845 and 2.121 and 1.968 | 0.08114 | 8.5413 |
